From ChEMBL document CHEMBL5126650, “Novel IRAK Degraders for Treating Cancer” (ACS Med Chem Lett, 2022) come the findings set out here.

The DC50 is the concentration giving 50% degradation.

The structures appear in SMILES notation.

The assay has as its target Protein cereblon/Interleukin-1 receptor-associated kinase 4 (Homo sapiens, UniProt Q9NWZ3+Q96SW2). Briefly: Protac activity at E3 ubiquitin ligase/IRAK4 in human OCILY10 cells assessed as degradation of IRAK4 incubated for 4 hr by MSD assay. The class given is cell-based.

Protein cereblon/Interleukin-1 receptor-associated kinase 4, sequence (Q9NWZ3 whole entry): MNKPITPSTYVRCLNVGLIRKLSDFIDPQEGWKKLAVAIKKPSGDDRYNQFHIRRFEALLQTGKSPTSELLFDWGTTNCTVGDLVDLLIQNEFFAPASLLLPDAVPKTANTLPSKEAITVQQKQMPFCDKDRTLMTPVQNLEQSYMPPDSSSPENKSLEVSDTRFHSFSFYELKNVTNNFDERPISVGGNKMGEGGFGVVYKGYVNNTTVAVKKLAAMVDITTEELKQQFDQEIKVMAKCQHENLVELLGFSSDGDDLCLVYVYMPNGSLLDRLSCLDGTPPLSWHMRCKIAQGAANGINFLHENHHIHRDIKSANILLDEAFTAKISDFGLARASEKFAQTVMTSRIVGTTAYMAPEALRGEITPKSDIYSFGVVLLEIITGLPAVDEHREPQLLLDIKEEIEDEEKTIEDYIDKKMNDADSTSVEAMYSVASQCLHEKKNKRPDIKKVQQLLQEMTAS
Protein cereblon/Interleukin-1 receptor-associated kinase 4, sequence (Q96SW2 whole entry): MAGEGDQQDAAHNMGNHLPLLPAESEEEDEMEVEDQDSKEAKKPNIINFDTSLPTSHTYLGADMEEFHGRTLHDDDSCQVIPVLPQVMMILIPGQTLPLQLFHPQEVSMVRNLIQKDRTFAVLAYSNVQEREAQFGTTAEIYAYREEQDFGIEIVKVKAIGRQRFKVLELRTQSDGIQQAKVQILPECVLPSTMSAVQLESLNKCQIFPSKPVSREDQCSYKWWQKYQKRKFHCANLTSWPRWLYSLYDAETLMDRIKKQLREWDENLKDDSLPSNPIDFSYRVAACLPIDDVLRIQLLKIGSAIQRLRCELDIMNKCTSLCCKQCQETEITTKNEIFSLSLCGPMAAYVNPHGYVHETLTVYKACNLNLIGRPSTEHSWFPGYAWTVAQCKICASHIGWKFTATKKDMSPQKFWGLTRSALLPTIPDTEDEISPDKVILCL

As to `CN(C[C@H]1CC[C@H](n2cc3cc(NC(=O)c4cccc(C(F)(F)F)n4)ccc3n2)CC1)C1CCN(c2ccn3c(N4CCC(=O)NC4=O)cnc3c2)CC1`, the 50% degradation concentration (DC50) was below 10 nM.

As to `COc1cc2nn([C@H]3CC[C@H](CN(C)C4CCN(c5ccc6c(N7CCC(=O)NC7=O)cncc6c5)CC4)CC3)cc2cc1NC(=O)c1cccc(C(F)(F)F)n1`, the half-maximal degradation concentration (DC50) is below 10 nM.

Turning to `CN(C[C@H]1CC[C@H](n2cc3cc(NC(=O)c4cccc(C(F)(F)F)n4)c(C(C)(C)O)cc3n2)CC1)C1CCN(c2ccc3c(N4CCC(=O)NC4=O)cncc3c2)CC1`, the DC50 is below 10 nM.

As for `CN(C[C@H]1CC[C@H](n2cc3cc(NC(=O)c4cccc(C(F)(F)F)n4)c(C(C)(C)O)cc3n2)CC1)C1CCN(c2ccn3c(N4CCC(=O)NC4=O)cnc3c2)CC1`, the DC50 was below 10 nM.

Turning to `CN(C[C@H]1CC[C@H](n2cc3cc(NC(=O)c4cccc(C(F)(F)F)n4)ncc3n2)CC1)C1CCN(c2ccn3c(N4CCC(=O)NC4=O)cnc3c2)CC1`, the DC50 is below 10 nM.

As to `COc1cc2nc([C@H]3CC[C@H](CN4CCC(c5ccn6c(N7CCC(=O)NC7=O)cnc6c5)CC4)CC3)sc2cc1NC(=O)c1cccc(C(F)(F)F)n1`, the DC50 is below 10 nM.
